Results on five compounds are retold here after US10155948B2, “Pharmaceutical composition for preventing or treating diabetic complications and screening method for preventive or therapeutic agent for diabetic complications” (KANGWON NATIONAL UNIVERSITY UNIVERSITY-INDUSTRY COOPERATION …, priority 2016, dated 2018).

Structures are written as SMILES.

The target in the experiment is T1, TGase2 (Mus musculus, UniProt P21981).
T1 construct: from tissue; host or cells: retina of streptozotocin-diabetic C57BL/6 mice
T1 sequence (P21981 1-686): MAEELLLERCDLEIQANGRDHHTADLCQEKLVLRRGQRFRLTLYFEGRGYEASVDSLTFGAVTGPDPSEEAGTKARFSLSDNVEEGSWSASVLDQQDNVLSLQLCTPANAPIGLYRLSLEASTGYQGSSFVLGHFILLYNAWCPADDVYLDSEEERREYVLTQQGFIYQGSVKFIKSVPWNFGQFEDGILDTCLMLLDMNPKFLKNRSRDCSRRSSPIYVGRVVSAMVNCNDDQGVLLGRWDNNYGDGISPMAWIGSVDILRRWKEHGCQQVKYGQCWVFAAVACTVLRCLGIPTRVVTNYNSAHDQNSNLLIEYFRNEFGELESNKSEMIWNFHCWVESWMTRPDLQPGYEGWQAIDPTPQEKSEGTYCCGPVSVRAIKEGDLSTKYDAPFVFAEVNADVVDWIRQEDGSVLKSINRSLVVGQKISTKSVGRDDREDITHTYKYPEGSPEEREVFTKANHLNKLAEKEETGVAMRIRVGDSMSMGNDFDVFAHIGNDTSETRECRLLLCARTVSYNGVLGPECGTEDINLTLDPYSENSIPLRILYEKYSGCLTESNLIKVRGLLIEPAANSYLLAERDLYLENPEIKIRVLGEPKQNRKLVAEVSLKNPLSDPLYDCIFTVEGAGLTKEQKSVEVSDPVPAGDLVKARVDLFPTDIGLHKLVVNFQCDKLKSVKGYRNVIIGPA
Briefly: In-vivo TGase activity in retina of streptozotocin-diabetic mice. Particulars: for hyperglycemia-induced TGase2 activation in diabetic retina (in-vivo TGase activity): diabetic mice, intravitreal 2 μl: 50 mM cystamine, 20 mM MDC, 1 μM C-peptide, 2 μM Trolox, 500 mM NAC, after 24 hrs, n=8; for increase of TGase activity in retinas of diabetic mice: intravitreal injection, 0.5 mM dopamine, 500 mM cysteamine. The method, then: Two weeks after streptozotocin injection, diabetic mice were intravitreally injected with 2 μl of TGase inhibitors (50 mM cystamine or 20 mM MDC), 1 μM C-peptide (American Peptide Company, Sunnyvale, Calif.), ROS scavengers (2 μM Trolox or 500 mM NAC), or 65 μM mouse TG2-specific siRNA (Dharmacon, Lafayette, Colo.) into one eye and an equal volume of PBS or mouse control siRNA (Dharmacon, Lafayette, Colo.) into the contralateral eye. Non-diabetic mice were also intravitreally injected with 2 μl of PBS or mouse control siRNA into the eyes. After 24 hrs for inhibitors or C-peptide or 48 hrs for mouse TGase2 siRNA, mice were subjected to measurement of in-vivo TGase activity and vascular leakage from the retina.
In vivo Tgase transamidating activity was determined in mouse retina using confocal microscopy (FIG. 5A). 24 hrs after intravitreal injection of TGase2 inhibitors and C-peptide or 48 h after the injection of mouse TGase2-specific siRNA, mice were deeply anaesthetized using 2.5% avertin and 48 μl of 100 mM BAPA was injected into the left ventricle. BAPA was allowed to circulate for 10 min and mice were sacrificed by cervical dislocation. Eyes were then enucleated and immediately fixed with 4% paraformaldehyde for 45 min. Retinas were dissected in the Maltese cross-configuration and permeabilized with 0.2% Triton X-100 in PBS for 30 min at RT. After incubation with the blocking solution for 30 min, retinas were treated with FITC-conjugated streptavidin (1:200, v/v) in the blocking solution for 1 hr at RT. The superficial vessels of stained retinas (n=8 per group) were observed using confocal microscopy and fluorescence intensities were analyzed using Fluoview software (FV-300). In-vivo TGase activities were quantitatively determined using fluorescence intensities in the retinas of normal and diabetic mice.
Six-week-old male C57BL/6 mice were obtained from KOATECH (Pyeongtaek, Korea). TGase2^−/− mice (C57BL/6) were prepared by disrupting exons 5 and 6 of TGase2 by homologous recombination, as previously described. Diabetic mice were generated by a single intraperitoneal injection of streptozotocin (150 mg/kg body weight, Sigma) freshly prepared in 100 mM citrate buffer (pH 4.5) as previously described. Mice with non-fasting blood glucose levels greater than 19 mM, polyuria and glucosuria were considered diabetic. Experiments were performed in strict accordance with the guidelines of the Institutional Animal Care and Use Ethics Committee of Kangwon National University.
To validate the in-vitro findings, the present inventors further investigated the role of TGase2 in hyperglycemia-induced vascular leakage in the retina of diabetic mice. For this study, the present inventors designed an in-vivo TGase activity assay using confocal microscopy in mouse retina (FIG. 5A). In this assay, BAPA, which is a TGase2 pseudo substrate, was systemically delivered into the blood circulatory system by injection into the left ventricles of mice, and biotinylated proteins in the retinas were probed with FITC-conjugated streptavidin.
(A) A schematic diagram for determining TGase2 activity in mouse retina. (B,C) Streptozotocin-induced diabetic mice were intravitreally injected with 2 μl cystamine (diabetic+Cys), MDC (diabetic+MDC), C-peptide (diabetic+C-pep), Trolox (diabetic+Trolox) or NAC (diabetic+NAC) into one eye and an equal volume of PBS into the contralateral eye (diabetic). Non-diabetic mice were also intravitreally injected with 2 μl PBS into both eyes (normal). TGase2 activities in retinas were visualized by confocal microscopy and quantitatively determined as described in Research Design and Methods (n=8 per group). (B) Representative TGase activity images in the retinas. […] Scale bar, […]. (C) In-vivo TGase activities were quantified by measuring the fluorescence intensity in retinas (***p<0.001). […]

Turning to `CN(C)c1cccc2c(S(=O)(=O)NCCCCCN)cccc12` [MDC, monodansylcadaverine], the “hyperglycemia-induced TGase2 activation in diabetic retina (in-vivo TGase activity)” value (“hyperglycemia-induced TGase2 activation” for short) is recorded as “suppressed”.

For `Cc1c(C)c2c(c(C)c1O)CCC(C)(C(=O)O)O2` (centres unmarked) [Trolox], the “hyperglycemia-induced TGase2 activation” value was “prevented”.

With `NCCSSCCN` [cystamine], the “hyperglycemia-induced TGase2 activation” value is “suppressed”.

On to `NCCS` [cysteamine], for which the “increase of TGase activity in retinas of diabetic mice” value is “inhibited”.

For the compound `NCCc1ccc(O)c(O)c1` [dopamine], the “increase of TGase activity in retinas of diabetic mice” value was “inhibited”.
